The values that follow come from patent US20220289731A1, “MELANOCORTIN-4 RECEPTOR AGONISTS” (LG CHEM, LTD., priority 2019, published 2022).

In test [1] the target is T1, MC4R (Homo sapiens, UniProt P32245). Description: cAMP assay (cAMP Hunter Gs-coupled CHO-K1 cell line). The test is classed as cell-based. On the set-up: expressed in transfected cells; host or cells: CHO-K1 (cAMP Hunter Gs-coupled cell line). The settings on record: CHO-K1 cells overexpressing MC4R, 30 min at 37° C. The source says:
The melanocortin receptor is a type of G-protein coupled receptor (GPCR), and the main role of G-protein is to activate secondary transducers to regulate cellular responses to many physiological stimuli through signal transduction. MC4R is a Gs-coupled receptor, and it is known that if MC4R interacts with an agonist, adenylate cyclase (AC) is activated to increase the concentration of cyclic AMP (cAMP), which is one of the secondary transducers in cells. Therefore, it is possible to evaluate the activity of melanocortin receptors by measuring the generation of cAMP signals.
After cAMP Hunter Gs-coupled cell lines (CHO-K1 cell line) in which each of MC1R, MC3R, MC4R and MCSR was overexpressed were established so that the increase in the cAMP level in cells due to agonist reaction was measurable, the cells were inoculated into each well of a white cell culture plate and incubated for 24 hours in a 37° C. incubator in the presence of 5% CO2. After the incubation, the medium was removed, and 15 μl of a 2:1 HBBS/10 mM HEPES:cAMP XS+Ab reagent was added. After 5 μl of the sample diluted 4 times with buffer was added, the vehicle concentration was set to 1%, and the MC4R agonist compound diluted at each step concentration was added, followed by reaction at 37° C. for 30 minutes. The activity (%) of each agonist compound is expressed as 100%×(average RLU value of sample−average RLU value of vehicle control)/(average RLU value of max control−average RLU value of vehicle control), and the value was analyzed by CBIS data analysis suite (ChemInnovation, CA).
Target sequence in this assay (P32245 whole entry, species assumed): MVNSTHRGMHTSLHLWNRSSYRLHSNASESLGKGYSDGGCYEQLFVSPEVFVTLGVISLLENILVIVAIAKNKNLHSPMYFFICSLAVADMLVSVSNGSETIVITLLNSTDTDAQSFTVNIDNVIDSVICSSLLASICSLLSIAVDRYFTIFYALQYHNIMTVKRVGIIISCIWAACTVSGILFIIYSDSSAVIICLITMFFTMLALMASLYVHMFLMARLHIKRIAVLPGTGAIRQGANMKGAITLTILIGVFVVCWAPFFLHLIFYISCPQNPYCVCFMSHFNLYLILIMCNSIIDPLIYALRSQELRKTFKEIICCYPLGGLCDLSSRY

Test [2] deals with T1, MC4R. Nature of the test: Luciferase assay (HEK MC4R-Luc, CRE-LUC). The test is classed as cell-based. On the set-up: expressed in transfected cells. The settings on record: HEK MC4R-Luc cells, 5 h incubation. How it is done: In order to measure the agonist ability against MC4R (melanocortin-4 receptor), a cell line that permanently expresses the luciferase gene (CRE-LUC) under the control of MC4R and CRE (cAMP response element) was established. After a mammalian cell expression vector (pCDNA3 (Neo)) (Invitrogen) containing the MC4R gene was prepared, human embryonic kidney (HEK) cell lines were transformed by using Lipofectamine 2000 (Invitrogen) together with a vector (pCRE-Luc)(Stratagen) expressing a luciferase gene (CRE-LUC) under the control of a cAMP response element (CRE). Transformed cell lines (HEK MC4R-Luc) were incubated in a 37° C. incubator in the presence of 5% CO2 for 24 hours by using Dulbecco's Modified Eagles Medium (DMEM) containing 10% Heat-Inactivated Fetal Bovine Serum (GIBCO/BRL). The cell lines were incubated for four days in the presence of Dulbecco's Modified Eagles Medium (DMEM) containing 10 ml of selection medium (10% Heat-Inactivated Fetal Bovine Serum (GIBCO/BRL), 100 unit/ml of penicillin (GIBCO/BRL), 100 unit/ml of streptomycin (GIBCO/BRL), 800 μg/ml of Geneticin (G418) (GIBCO/BRL). The process of removing cells killed by the selection medium by replacing the medium with 10 ml of a new selection medium was repeated three times, once every 4 days. Individual colonies formed by the finally selected and propagated clones were transferred under a microscope to a 24-well cell culture plate containing 1 ml of selection medium per well and incubated for 4 days. Forskolin (SIGMA) was treated to a final concentration of 10 μM, and then incubated for five hours in a 37° C. incubator in the presence of 5% CO2. Each well was treated with 50 μl of a Bright-Glo luciferase reagent (Promega) and left at room temperature for 15 minutes, and then the luminescence of each well was measured by using a luminometer (Victor).
HEK MC4R-Luc cells were added to each well of a 96-well luminometer cell culture plate (Costar) to a size of 2.5×10^4 cells in 100 μl of a culture medium and then incubated in a 37° C. incubator in the presence of 6% CO2 for 18 hours. […] Each well was treated with 50 μl of a Bright-Glo luciferase reagent (Promega) and left at room temperature for five minutes, and then the luminescence of each well was measured by using a luminometer (Victor). […] EC0.5 MSH is expressed as a concentration that induces 50% of the maximum amount of luminescence that can be induced by NDP-α-MSH, and EC50 is expressed as a concentration that induces 50% of the maximum amount of luminescence that can be induced by each agonist. The measurements were measured using statistical software (Prizm).
Target sequence in this assay (P32245 whole entry, species assumed): as above

Test [3] has as its target T1, MC4R. Description: Binding affinity, 125I-NDP-α-MSH displacement on membranes. On the set-up: expressed in transfected cells; host or cells: HEK-293 cells; membranes collected. The settings on record: HEK-293 MC4R membrane, 0.02 nM 125I-NDP-α-MSH. The source says: Five subtypes of melanocortin receptor (MCR) in vivo are known, and it is known that MC4R, which is Subtype 4, is involved in energy metabolism and weight control. Since other MCR subtypes are involved in the regulation of various functions in vivo such as skin pigmentation, energy homeostasis, and exocrine functions, securing selectivity for MC4R of MC4R agonist compounds is very important in preventing possible side effects in the future. Therefore, the receptor binding abilities of MC4R agonists for each MCR subtype were measured.
After the CHO-K1 cell line expressing human recombinant MC1R and the HEK-293 cell lines expressing MC3R, MC4R and MCSR were established, membranes were collected from each cell line. In a 96-well cell culture plate, 3 μg MC1R membrane and 0.04 nM ^125I-NDP-α-MSH per well were reacted at 37° C. for two hours. 3 μg MC3R and MCSR membrane and 0.035 nM ^125I-NDP-α-MSH were reacted at 37° C. for one hour, and 3.12 μg MC4R membrane and 0.02 nM ^125I-NDP-α-MSH were reacted at 37° C. for two hours. At this time, 25 mM HEPES-KOH adsorption buffer (pH 7.0) containing MCR agonist diluted at each step concentration was added to each well and reacted. The reacted solution was transferred to a filter and washed with an adsorption buffer, and then radioactivity was measured. The value excluding the non-specific binding amount in the presence of 1 μM (MC1R) and 3 μM (MC3R, MC4R, MCSR) of NDP-α-MSH from each total binding amount was used as specific binding amounts of ^125I-NDP-α-MSH. The degree to which the ^125I-NDP-α-MSH specific binding was inhibited by the agonist diluted at each step concentration was measured. IC50 was expressed as the concentration of each agonist that inhibited specific binding of 50% of ^125I-NDP-α-MSH.
Target sequence in this assay (P32245 whole entry): as the sequence (P32245 whole entry, species assumed) above

Test [4] addresses T1, MC4R. Nature of the test: β-arrestin assay (Pathhunter eXpress U2OS cell line). The class given is cell-based. On the set-up: expressed in transfected cells; host or cells: U2OS (Pathhunter eXpress β-arrestin cell line). The settings on record: U2OS cells, 90 min at 37° C. The source says: The melanocortin receptor is a type of G-protein coupled receptor (GPCR) and regulates various physiological responses by transducing signals from many neurotransmitters. When GPCR is phosphorylated, β-arrestin is bound to the phosphorylated part of the receptor and plays an important role in activating various signaling pathways in cells through interaction with other proteins. It is known that, when the melanocortin receptor interacts with an agonist, β-arrestin is mobilized and is involved in the β-arrestin-mediated signaling pathway. Therefore, the activity of the melanocortin receptor can be evaluated through the measurement of β-arrestin.
A Pathhunter eXpress β-arrestin cell line (U2OS cell line) in which Prolink (PK)-tagged MC1R, MC3R, MC4R, MC5R and Enzyme acceptor (EA)-tagged β-arrestin were expressed together was established. When the MCR-PK portion of this cell line is activated, β-arrestin-EA is mobilized, and enzyme acceptor (EA) and Prolink (PK), which are the β-galactosidase enzyme fragments, interact. The activated enzyme hydrolyzes the substrate by β-galactosidase activity to produce a chemiluminescent signal, so that the activity can be measured. After the Pathhunter eXpress β-arrestin cell line (U2OS cell line) was incubated, the cells were inoculated into each well of the cell culture plate and incubated for 48 hours in a 37° C. incubator in the presence of 5% CO2. After the incubation, 5 μl of the sample diluted 5 times with buffer was added, the vehicle concentration was set to 1%, and the MC4R agonist compound diluted at each step concentration was added, followed by reaction at 37° C. for 90 minutes. The activity (%) of each agonist compound is expressed as 100%×(average RLU value of sample−average RLU value of vehicle control)/(average maximum value of control ligand−average RLU value of vehicle control), and the value was analyzed by CBIS data analysis suite (ChemInnovation, CA).
Target sequence in this assay (P32245 whole entry): as the sequence (P32245 whole entry, species assumed) above
Target sequence in this assay (P32121 whole entry partner): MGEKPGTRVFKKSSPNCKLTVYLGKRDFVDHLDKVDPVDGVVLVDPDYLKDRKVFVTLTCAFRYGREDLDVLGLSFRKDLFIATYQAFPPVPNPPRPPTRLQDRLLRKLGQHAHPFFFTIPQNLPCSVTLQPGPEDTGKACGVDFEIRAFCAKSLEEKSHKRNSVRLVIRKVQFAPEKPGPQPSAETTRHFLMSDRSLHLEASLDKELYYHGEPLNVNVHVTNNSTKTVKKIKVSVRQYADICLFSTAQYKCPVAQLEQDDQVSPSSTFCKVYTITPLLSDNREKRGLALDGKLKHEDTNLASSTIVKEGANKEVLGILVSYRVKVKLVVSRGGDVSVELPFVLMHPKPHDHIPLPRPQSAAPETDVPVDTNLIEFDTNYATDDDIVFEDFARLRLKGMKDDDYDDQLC

For test [5], the system named is mouse obesity model induced by high fat diet. Description: Mouse obesity model induced by high fat diet. The class given is in vivo, C57BL/6Ntaconic mice. The settings on record: Day 12, 10 mg/kg, oral once a day, high-fat-diet obese mice. How it is done: The effect of melanocortin-4 receptor agonists on obesity was evaluated by using the mouse obesity model induced with a high fat diet.
Five-week-old male C57BL/6Ntaconic mice were fed with a 60 kcal % fat diet (D12492, Research Diet.) for 15 weeks to induce obesity. The compound of Example 1, the compounds of the comparative examples (A95 and A96), and sibutramine as a positive control were prepared in distilled water and orally administered to […] mouse obesity models induced by a high-fat diet once a day from day 1 to day 16. From Day 1 to Day 16, the body weight was measured once a day, the dietary intake was measured five times a week, and drinking water intake was measured twice a week. Blood glucose and glycated hemoglobin were measured on Day 15, and all animals were sacrificed on Day 17. Blood was collected through the abdominal vena cava, and the liver and epididymal adipose tissues were removed and weighed. The collected blood was placed in a heparin tube and centrifuged to separate plasma, and then plasma biochemical analysis was performed.

Where a name gives a salt, the structure may show the parent alone.

By EC50 is commonly meant the concentration giving half of the maximal effect. Low values mean higher potency in that assay, high ones lower potency in that assay. What is called Ki is the equilibrium dissociation constant of an inhibitor or competing ligand from its target. Consider `CC(C)(C)C(=O)N([C@H]1C[C@@H](C(=O)N2CCOCC2)N(C(=O)[C@@H]2CN(C(C)(C)C)C[C@H]2c2ccc(Cl)cc2)C1)[C@H]1CC[C@@H](C)CC1` [Example 3, N-((3S,5S)-1-((3S,4R)-1-(tert-butyl)-4-(4-chlorophenyl)pyrrolidine-3-carbonyl)-5-(morpholine-4-carbonyl)pyrrolidin-3-yl)-N-((1s,4R)-4-methylcyclohexyl)pivalamide hydrochloride], for which the EC50 in test [1] came to 0.0227 µM; in test [2] it was 0.000675 µM; in test [4], 0.0033 µM. Also, affinity in test [3] was put at a Ki of 0.024 µM.
Take `CCC(=O)N([C@H]1C[C@@H](C(=O)N2CCOCC2)N(C(=O)[C@@H]2CN(C(C)(C)C)C[C@H]2c2ccc(Cl)cc2)C1)[C@H]1CC[C@@H](C)CC1` [Example 2, N-((3S,5S)-1-((3S,4R)-1-(tert-butyl)-4-(4-chlorophenyl)pyrrolidine-3-carbonyl)-5-(morpholine-4-carbonyl)pyrrolidin-3-yl)-N-((1s,4R)-4-methylcyclohexyl)propionamide hydrochloride]: the EC50 amounted to 0.0503 µM in test [1], 0.00107 µM in test [2] and 0.0087 µM in test [4]. The same molecule came in with a Ki in test [3] of 0.11 µM.
As to `CC(C)CC(N(C)C)C1(c2ccc(Cl)cc2)CCC1` (stereo not drawn) [Sibutramine], the “Difference in weight change rate to vehicle” value in test [5] is on record as −6.8%.
